# Laboratory results published in patent US5550128A, “Enantiomers of gamma methylene 10-deaza aminopterin and process for preparing the same” (priority 1994, dated 1996).
# Tests used:
# [1] = Antitumor activity by continuous i.v. infusion (C.I.) × 5d against human HCT-8 ileocecal xenograft; assay type: in vivo, human (xenograft in nude mice); conditions: mouse, in vivo, iv; 0.25 mg/kg, C.I. × 5d; read-out: death
# Source text: (§1) Antitumor Activity of MDAM by C.I. × 5d
# (§2) against HUMAN HCT-8 Ileocecal Xenograft
# (§3) MIR: Maximum inhibitory rate.
# (§4) TD: Tumor doubling time.
# (§5) CR: Complete Regression.
# (§6) PR: Partial Regression.
# (§7) MWL: Maximum Weight Loss.
# [2] = tested on: Human HCT-8 Ileocecal Xenograft; assay: as above; assay type: in vivo, human (xenograft in nude mice); conditions: for CR: Complete Regression / MIR: Maximum inhibitory rate / PR: Partial Regression / TD: Tumor doubling time: C.I. × 5d
# Source text: as §1, §2, §3, §4, §5, §6, §7
# [3] = tested on: Human HCT-8 Ileocecal Xenograft; assay: Antitumor activity by I.V. push, daily × 5, against human HCT-8 ileocecal xenograft
# Source text: [M. G. Nair and Ann Abraham, U.S. Pat. No. 4,996,207 (1991); M. G. Nair, U.S. Pat. No. 5,073,554 (1991 )]. […] [Ann Abraham, M. G. Nair, et al. Advanced in Exp. Med. and Biol. 663-666 (1993)].
# MIR: Maximum inhibitory rate. TD: Tumor doubling time.
# CR: Complete Regression. PR Partial Regression.
# as §7
smiles,measurement,setting,value
"CN(Cc1cnc2nc(N)nc(N)c2n1)c1ccc(C(=O)N[C@@H](CCC(=O)O)C(=O)O)cc1 [MTX, methotrexate, reference compound]",mortality,[1],100%
same,CR: Complete Regression,[2]; 0.1 mg/kg,0%
same,MIR: Maximum inhibitory rate,[2]; 0.1 mg/kg,50.6 ± 9.6%
same,PR: Partial Regression,[2]; 0.1 mg/kg,0%
same,TD: Tumor doubling time,[2]; 0.1 mg/kg,4.8 ± 0.4 days
same,CR: Complete Regression,[2]; 0.2 mg/kg,0%
same,MIR: Maximum inhibitory rate,[2]; 0.2 mg/kg,52.8 ± 8.5%
same,PR: Partial Regression,[2]; 0.2 mg/kg,0%
same,TD: Tumor doubling time,[2]; 0.2 mg/kg,5 ± 0.5 days
same,CR: Complete Regression,[2]; 0.25 mg/kg,0%
same,PR: Partial Regression,[2]; 0.25 mg/kg,0%
same,measurable antitumor activity,"[2]; continuous 5 day iv infusion, HCT-8 xenograft",did not exhibit any measurable antitumor activity
same,CR: Complete Regression,"[3]; 1 mg/kg, i.v. push daily × 5",0%
same,MIR: Maximum inhibitory rate,"[3]; 1 mg/kg, i.v. push daily × 5",29.8 ± 8.6%
same,MWL: Maximum Weight Loss,"[3]; 1 mg/kg, i.v. push daily × 5",14.0 ± 3.0%
same,PR: Partial Regression,"[3]; 1 mg/kg, i.v. push daily × 5",0%
same,TD: Tumor doubling time,"[3]; 1 mg/kg, i.v. push daily × 5",4.6 ± 0.6 days
same,measurable antitumor activity,"[3]; iv push, HCT-8 xenograft",did not exhibit any measurable antitumor activity
